Measured values taken from patent publication US10857112B2, “Small molecule inhibitors of RNA binding motif (RBM) proteins for the treatment of acute cellular injury” (University of Pittsburgh—Of the Commonwealth System of …, priority 2012, dated 2020).

What was measured:
[1] = test system: caspase-3; experiment: Western blot of cleaved caspase-3 and caspase-3 substrates after STS; format: cell-based, rat; details: 125 μM
Experimental: Caspase-3 inhibition was confirmed by biochemical analysis. Protein samples harvested from neurons incubated with 125 μM AQ2S and 500 nM STS for 6 hours were run on western blot. Consistent with caspase-3 inhibition, cleaved (i.e., activated) capase-3 was reduced in AQ2S-treated neurons (FIG. 8D). Finally, the inhibition of caspase-3 by AQ2S was confirmed biochemically via western blot analysis of substrate cleavage products. Poly ADP ribose polymerase is a classic caspase-3 substrate. The parent protein migrates at ˜116 KDa on SDS-PAGE. An 89-KDa product is produced upon cleavage by caspase-3. Cortical neurons were subjected to 250 nM STS for 6 hours.
(§1) Neurons used for Western blot analysis for grown in 6-well plates. Briefly, neurons were treated with experimental compounds for the indicated time/conditions. At the end of each experiment, neurons were washed in ice cold PBS and harvested in 65 μL RIPA buffer containing protease inhibitors, phosphatase inhibitors, and EDTA. Extracts were collected in 0.5 mL tubes and sonicated for 20-30 seconds. Cell extracts were then spun at 4° C./16,000 g/10 minutes and stored at −80° C. until use. Frozen extracts were thawed on ice and protein concentration measured using the BCA assay (PIERCE). […] of sample protein was loaded per well of a 7.5% SDS precast gel (Biorad), and run for 30 minutes to 1 hour at 200 V. Kaleidoscope protein standards (Biorad) were run parallel to neuron extracts. Proteins were then transferred to PDVF membranes (run at 100 V/4° C./1.5 hours). PDVF membranes were washed once in tris buffered saline (TBS) and blocked for 1 hour in tris buffered saline/tween-20 with 7.5% nonfat milk (TBS-T/milk). Blots were incubated overnight at 4° C. with primary antibodies in TBS-T/milk. Cell Signaling Technology: phospho-AKT473, AKT Total, phospho-ERK1/2, ERK Total, cleavage caspase-3. Santa Cruz Antibodies: NF-κB p50 subunit, NF-κB p65 subunit, and beta actin. Calbiochem: 4-HNE antibody. Blots were washed 3 times (5 minutes each) with TBS, and incubated with secondary antibodies for 2 hours. Invitrogen: goat anti-rabbit or goat anti-mouse. Blots were washed 3 times (5 minutes each) with TBS, and incubated for 1 minute in HRP detection solution (Amersham). Films were exposed to blots and developed (SRX-101A, Konica Minolta Medical & Graphic Inc.). Re-probed blots (e.g. beta actin, AKT total, ERK total) were stripped in western blot stripping buffer (Fischer Scientific) for 10 minutes, washed once with TBS, re-blocked in TBS-T/milk for 1 hour, and incubated overnight with new primary antibody. Films were scanned (EPSON GT 20,000), and densitometry performed using UN-SCAN-IT software (Silk Scientific).

[2] = test system: AKT; experiment: Western blot of AKT activation (pAKT473); format: cell-based, rat
Experimental: AKT is a key pro-survival kinase that is dysregulated by acute brain injury. Many diverse therapies used to prevent neuronal death activate AKT, including small molecules, endogenously derived survival proteins, and other non-pharmacology based treatments like therapeutic hypothermia. To further elucidate the mechanisms of AQ2S-mediated neuroprotection, the level of activated (phosphorylated) AKT was measured by western blot.
as §1

[3] = test system: 4-HNE; experiment: Lipid peroxidation (4-HNE western blot) in neurons; format: cell-based, rat
Experimental: To test if AQ2S promotes lipid peroxidation in neurons, at D.I.V. 12, culture media was exchanged with Neurobasal/B27 (−AO) in the absence or presence of […] for 48 hours. D.I.V. 14 neurons were harvested and analyzed for 4-HNE levels.
Injury (e.g. brain ischemia), robustly increases endogenous reactive oxygen species (ROS) levels. ROS may promote the formation of deleterious quinone radicals and increase lipid peroxidation. The potential enhancement by AQ2S of lipid peroxidation induced by 200 μM H2O2 was evaluated. D.I.V. 13 neurons were treated for 4.5 hours with 200 μM H2O2 in fresh neurobasal/B27 (−AO) in the presence or absence of 125 μM AQ2S. 200 μM H2O2 increased 4-HNE levels. The asterisk in FIG. 17b indicates an approximate 40-45 KDa band, particularly, sensitive to treatment.
Neurons used for Western blot analysis for grown in 6-well plates. Briefly, neurons were treated with experimental compounds for the indicated time/conditions. At the end of each experiment, neurons were washed in ice cold PBS and harvested in 65 μL RIPA buffer containing protease inhibitors, phosphatase inhibitors, and EDTA. Extracts were collected in 0.5 mL tubes and sonicated for 20-30 seconds. Cell extracts were then spun at 4° C./16,000 g/10 minutes and stored at −80° C. until use. Frozen extracts were thawed on ice and protein concentration measured using the BCA assay (PIERCE). […]

[4] = test system: primary rat cortical neurons; experiment: Ischemia (OGD) injury, neuron viability; format: cell-based; details: 1 hour OGD; 75 μM during and after injury; 24 hours
Experimental: AQ2S was dissolved in 100% DMSO (vehicle). Rat cortical neurons were isolated from E17 embryos, and seeded onto 96-well plates at a density of 7.5×10^4/well. At D.I.V. 10-11 culture maintenance media was replaced with treatment media (Modified Eagles Buffered Solution) without or with 25 μM Glucose. In addition, neurons were incubated with or without oxygen (induced by placement of cell plates in an anoxic chamber flushed with a gas mixture to remove oxygen). OGD injury was administered for 1 hour. […] Neuron viability was measured 24 hours post-injury by incubation with CellTiter Blue reagent (PROMEGA) for 3.5 hours. CellTiter Blue is metabolized into a fluorescent reagent only in living cells. The level of fluorescence (expressed as relative fluorescent units; RFU) was measured on a plate reader (PROMEGA).
Primary rat cortical neurons were grown onto 96-well plates. Neurons were injured by a 1 hour treatment with/without 25 μM glucose and with/without oxygen. DMSO or 75 μM AQ2S were added to OGD treatment media during the 1 h ischemic injury period. After 1 hour injury, cells were returned to regular growth media and normoxic culture conditions (i.e. 95% […]/5% CO2) with either DMSO or 75 μM AQ2S. Cell viability was measured 24 hours later and expressed as relative fluorescent units (RFU). […] Data were analyzed by ANOVA (p<0.0001); Fisher LSD post-hoc test. * indicates p<0.05. […]

[5] = test system: C57BL6 mice, severe CCI brain injury; experiment: Controlled cortical impact (TBI) injury, hippocampal volume; format: in vivo
Experimental: AQ2S was prepared in 2% DMSO in PBS (i.e. vehicle). C57BL6 mice were administered a severe CCI brain injury. Severe brain trauma was induced by a pneumatic impactor device that delivers a defined cortical injury (impact depth, 1.6 mm; impact velocity, 5 m/s). 15 minutes after injury animals were given a 5 μL intracerebroventricular injection with either vehicle (n=7) or 500 μM AQ2S (n=7). The 5 μL injection volume was delivered at a rate of 0.5 μL/minute. […] A second vehicle or AQ2S injection was administered 24 hours after injury. […] 3 days after injury animals were sacrificed, perfused with a fixative, brains sectioned, and stained with hematoxylin and eosin (H&E). Images were captured using a light microscope and camera.
Mice were given surgical/treatment protocols and hippocampal tissue analyzed 3 days later. […] (D) Left (injured) and right (non-injured) hippocampal volumes were quantified for each mouse; sham (n=5), vehicle CCI injury (n=7), and AQ2S CCI injury (n=7). FIG. 23D show left hippocampal volumes (expressed as % of uninjured right hippocampus).

[6] = test system: primary rat cortical neurons; experiment: STS injury, neuronal viability and cytotoxicity
Experimental: At D.I.V. 11, ½ media was collected (conditioned media) and mixed with an equal volume fresh neurobasal media (to make the 24 hour treatment media). STS was prepared at the desired concentration in treatment media, with or without experimental drugs (AQ2S or LY294002). The remaining growth maintenance media was replaced with 100 μL, of treatment media per well of a 96-well plate (or 2 mL for a six-well plate) for 24 hours.
The LDH Cytotoxicity Assay Kit II was purchased from Abcam (Cambridge, Mass., USA). Neurons were cultured in 96-well format and subjected to STS injury ±AQ2S for 24 hours (in 100 μL, total media volume). At 23 hours maximum LDH release (positive control) was prepared by adding 10 μL, cell lysis reagent directly to a few non-injured wells (i.e., no STS or AQ2S). At the end of the 24 hour injury period, 80 μL, of media was transferred to a new 96-well plate. Plates were spun at ˜500 g for 5 minutes. 10 μL, of cell culture treatment media was added to a new black-walled plate and advanced WST detection reagent added. The mix was incubated for ˜15 minutes and absorbance measured (OD 450 nm). Fresh culture media was used as a negative control. Cytotoxicity was calculated using the standard formula: cytotoxicity %=(sample LDH−negative-control LDH)/(maximum LDH release−negative-control LDH)×100.

[7] = 150 nM STS 24 hours, co-treatment 75 μM

With `O=C1c2ccccc2C(=O)c2cc(S(=O)(=O)O)ccc21` [AQ2S, anthraquinone-2-sulfonic acid] the “89-KDa PARP cleavage product, western blot” value ([1]; 250 nM STS 6 hours) was “significantly reduced the formation of the 89-KDa species”, the “NF-κB p50 subunit protein levels” value ([1]; 250 nM STS 17 hours) was “No change” and the “NF-κB p65 subunit protein levels” value ([1]; 250 nM STS 17 hours) was “increased”. The “cleaved (activated) caspase-3, western blot” value ([1]; 500 nM STS 6 hours) was “reduced”, the pAKT473 ([2]; 250 nM STS 6 hours, AQ2S) was “marginally increased STS-induced pAKT473 at the 6-hour time point, but did not reach statistical significance” and the pAKT473 ([2]; 250 nM STS 21 hours, 125 μM AQ2S) was “pAKT473 increased in the presence of AQ2S”. For the same compound, the “AKT activity (pAKT473)” value ([2]; 125 μM, 17 hours STS injury) was “significant elevation in AKT activity”, the “ratio of pAKT473/AKT” value ([2]; 125 μM, 17 hours STS injury) was “highest in the AQ2S treated group” and the AKT total ([2]; non-injury, 125 μM) was “No effect on AKT total was observed”. For the same compound, the pAKT473 ([2]; non-injury, 125 μM, 4 hours) was “significant (but modest) rise in pAKT473”, the pAKT473 ([2]; non-injury, 125 μM, 24 hours) was “not significant at 24 hours” and the 4-HNE staining ([3]; 200 μM H2O2 4.5 hours, 125 μM) was “did not significantly up-regulate 4-HNE staining”. The “basal level of 4-HNE” value ([3]; uninjured, 125 AQ2S 48 hours) was “did not significantly increase the basal level of 4-HNE”, the “viability after ischemic (OGD) injury” value [4] was “significantly increases viability” and the “left hippocampal volume (% of uninjured right hippocampus)” value ([5]; 5 μL 500 μM intracerebroventricular 15 minutes and 24 hours after CCI, 3 days) was “not significantly (N.S.) different from Sham animals”. The estimated final tissue AQ2S concentration ([5]; 5 μL of 500 μM icv, extrapolated from total CSF volume in mice (35 μL), unit of the source corrected) was ~71 µM, the “STS injury, LDH release” value [6, 7] was “significantly reduced 24 hour STS injury” and the “STS injury, cellular ATP levels (GLO-Viability Assay)” value [6, 7] was “significantly reduced 24 hour STS injury”. The “STS injury, live-cell protease activity (CellTiter-Fluor)” value [6, 7] was “significantly reduced 24 hour STS injury”, the “STS injury, resazurin metabolism (CellTiter Blue)” value [6, 7] was “significantly reduced 24 hour STS injury” and the “reduction in viability compared with non-injured controls” value ([6]; 250 nM STS 24 hours, AQ2S-treated neurons) was 17.6%. The “cell death after STS” value ([6]; 250 nM STS 24 hours, co-treatment 75 or 125 μM) was “significantly reduced cell death”, the “cell viability, comparison of neuroprotectants” value ([6]; 250 nM STS co-administered 24 hours) was “increased cell viability” and the “neuronal viability, high dose STS” value ([6]; 500 nM STS 24 hours, co-treatment 125 μM and 150 μM) was “significantly (but only slightly) increased neuronal viability”. The “baseline viability or cytotoxicity” value ([6]; compound alone, no STS, 75 μM, 24 h) was “did not significantly alter baseline viability or cytotoxicity” and the “concentration of maximal protection” value ([6]; neuroprotection in neuron injury assays) was 75 to 125 µM.
